Data published in patent US10953100B2, “Compounds and therapeutic uses thereof” (priority 2015, dated 2021).

Biological target: Anti-alpha galactosyl IgG antibody
Assay: ELISA assay: streptavidin-captured biotin compound, binding of anti-alpha galactosyl IgG antibody
Set-up: species or system human
Conditions: geometric mean with standard error in brackets; streptavidin plate, anti-alpha galactosyl IgG 0.5 μg/mL; read-out: Concentration at half maximal binding
Experimental: Compounds containing F (representing a carbohydrate molecule capable of binding to a human anti-alpha-galactosyl antibody) and L (as biotin) were assayed for binding at both ends of the compound using an enzyme-linked immunosorbent assay (ELISA). Streptavidin-coated plates captured biotin to the surface of the plate and the binding of anti-alpha galactosyl antibodies to the alpha-galactosyl moiety was reported by a secondary antibody labelled with HRP (Horse Radish Peroxidase).
Compounds were titrated 1.5 fold from a top dose of 50 nM in phosphate buffered saline (PBS) (Sigma D8537)+0.025% DMSO (Dimethyl Sulphoxide, Sigma D8418). Streptavidin immobilizer 96-well plates (nunc 436014) were coated with 100 μL of compound at room temperature for 2 hours shaking at 500 rpm. Plates were washed with 2×200 μL PBS-T (PBS with 0.05% Tween 20 (Sigma P9416)) and 1×200 μL PBS-T with a 5 minute incubation shaking at room temperature, prior to being blocked for 1 hour at room temperature with 1% Bovine Serum Albumin (BSA, Sigma A2153) in PBS-T. After removing the blocking buffer, 50 μL of Anti-alpha galactosyl IgG antibody (Anti-alpha-galactosyl antibody was purified from human IVIG (Gammagard) by affinity purification using an alpha-galactosyl-HSA (Human Serum Albumin) sepharose column by Rockland Immunochemicals Inc.) at 0.5 μg/mL in PBS-T+1% BSA and incubated shaking at room temperature for 1 hour.
Plates were washed 2×200 μL PBS-T and 3×200 μL PBS-T with a 5 minute incubation, shaking at room temperature before the addition of 50 μL 1:5000 Goat Anti-Human IgG-HRP (horseradish peroxidase) conjugate (Abcam ab97175). The plates were incubated shaking at room temperature for 1 hour before a final wash of 2×200 μL PBS-T and 3×200 μl PBS-T with a 5 minute incubation shaking at room temperature. 100 μL TMB buffer (3,3′,5,5′-tetramethylbenzidine, a chromogenic substrate for horseradish peroxidase) (Pierce 34021) was added to the plate and allowed to develop for 5-10 minutes before the samples were quenched with 50 μL 2M sulfuric acid (Sigma 258105). The absorbance was read at 450 nm on an Envision plate reader (Perkin Elmer). Results from wells (duplicate) were averaged and the 50% binding affinity calculated.
The concentration at which half-maximal binding is achieved is reported as a geometric mean with standard error in brackets. The number of independent experiments is also reported. In order to achieve a signal both ends of the molecule are required to bind (biotin to streptavidin and alpha-galactosyl to anti-alpha galactosyl antibodies) simultaneously.

`CC(=O)NC1C(OCCCNC(=O)CCOCCOCCOCCOCCNC(=O)COc2cccc(C(=O)NCCNC(=O)CCOCCOCCOCCOCCOCCOCCOCCOCCOCCOCCOCCOCCNC(=O)CCCCC3SCC4NC(=O)NC43)c2)OC(CO)C(OC2OC(CO)C(O)C(OC3OC(CO)C(O)C(O)C3O)C2O)C1O` (stereo not drawn) [Example 19] and `CC(=O)NC1C(OCCCNC(=O)COc2ccc(-c3cc(OCC(=O)NCCCOC4OC(CO)C(OC5OC(CO)C(O)C(OC6OC(CO)C(O)C(O)C6O)C5O)C(O)C4NC(C)=O)cc(C(=O)NCCNC(=O)CCOCCOCCOCCOCCOCCOCCOCCOCCOCCOCCOCCOCCNC(=O)CCCCC4SCC5NC(=O)NC54)c3)cc2)OC(CO)C(OC2OC(CO)C(O)C(OC3OC(CO)C(O)C(O)C3O)C2O)C1O` (stereo not drawn) [Example 15] are within 1.5-fold of each other in EC50: 11.8 nM for the first, 11.5 nM for the second.

Going from `CC(=O)N[C@H]1[C@H](OCCCNCc2cccc(C(=O)NCCNC(=O)CCCC[C@@H]3SC[C@@H]4NC(=O)N[C@@H]43)c2)O[C@H](CO)[C@@H](O[C@@H]2O[C@H](CO)[C@H](O)[C@H](O[C@H]3O[C@H](CO)[C@H](O)[C@H](O)[C@H]3O)[C@H]2O)[C@@H]1O` [Example 17, 3-(((3-(((2R,3R,4R,5S,6R)-3-Acetamido-5-(((2S,3R,4S,5S,6R)-3,5-dihydroxy-6-(hydroxymethyl)-4-(((2R,3R,4S,5R,6R)-3,4,5-trihydroxy-6-(hydroxymethyl)tetrahydro-2H-pyran-2-yl)oxy)tetrahydro-2H-pyran-2-yl)oxy)-4-hydroxy-6-(hydroxymethyl)tetrahydro-2H-pyran-2-yl)oxy)propyl)amino)methyl)-N-(2-(5-((3aS,4S,6aR)-2-oxohexahydro-1H-thieno[3,4-d]imidazol-4-yl)pentanamido)ethyl)benzamide] to `CC(=O)N[C@H]1[C@H](OCCCNC(=O)COc2ccc(C(=O)NCCNC(=O)CCCC[C@@H]3SC[C@@H]4NC(=O)N[C@@H]43)cc2)O[C@H](CO)[C@@H](O[C@@H]2O[C@H](CO)[C@H](O)[C@H](O[C@H]3O[C@H](CO)[C@H](O)[C@H](O)[C@H]3O)[C@H]2O)[C@@H]1O` [Example 8, 4-(2-((3-(((2R,3R,4R,5S,6R)-3-Acetamido-5-(((2S,3R,4S,5S,6R)-3,5-dihydroxy-6-(hydroxymethyl)-4-(((2R,3R,4S,5R,6R)-3,4,5-trihydroxy-6-(hydroxymethyl)tetrahydro-2H-pyran-2-yl)oxy)tetrahydro-2H-pyran-2-yl)oxy)-4-hydroxy-6-(hydroxymethyl)tetrahydro-2H-pyran-2-yl)oxy)propyl)amino)-2-oxoethoxy)-N-(2-(5-((3aS,4S,6aR)-2-oxohexahydro-1H-thieno[3,4-d]imidazol-4-yl)pentanamido)ethyl)benzamide], the EC50 rises from 17.7 nM to 28.8 nM (1.6-fold). The first is the more potent here.

`CC(=O)N[C@H]1[C@H](OCCCNC(=O)COc2cc(C(=O)NCCNC(=O)CCCC[C@@H]3SC[C@@H]4NC(=O)N[C@@H]43)nc3ccccc23)O[C@H](CO)[C@@H](O[C@@H]2O[C@H](CO)[C@H](O)[C@H](O[C@H]3O[C@H](CO)[C@H](O)[C@H](O)[C@H]3O)[C@H]2O)[C@@H]1O` [Example 10, 4-(2-((3-(((2R,3R,4R,5S,6R)-3-Acetamido-5-(((2S,3R,4S,5S,6R)-3,5-dihydroxy-6-(hydroxymethyl)-4-(((2R,3R,4S,5R,6R)-3,4,5-trihydroxy-6-(hydroxymethyl)tetrahydro-2H-pyran-2-yl)oxy)tetrahydro-2H-pyran-2-yl)oxy)-4-hydroxy-6-(hydroxymethyl)tetrahydro-2H-pyran-2-yl)oxy)propyl)amino)-2-oxoethoxy)-N-(2-(5-((3aS,4S,6aR)-2-oxohexahydro-1H-thieno[3,4-d]imidazol-4-yl)pentanamido)ethyl)quinoline-2-carboxamide] and `CC(=O)N[C@H]1[C@H](OCCCNC(=O)COc2ccc(-c3cccc(C(=O)NCCNC(=O)CCCC[C@@H]4SC[C@@H]5NC(=O)N[C@@H]54)c3)cc2)O[C@H](CO)[C@@H](O[C@@H]2O[C@H](CO)[C@H](O)[C@H](O[C@H]3O[C@H](CO)[C@H](O)[C@H](O)[C@H]3O)[C@H]2O)[C@@H]1O` [Example 11] are within 1.5-fold of each other in EC50: 25.7 nM for the first, 19 nM for the second.

Going from `CC(=O)NC1C(OCCCNC(=O)COc2cc(OCC(=O)NCCCOC3OC(CO)C(OC4OC(CO)C(O)C(OC5OC(CO)C(O)C(O)C5O)C4O)C(O)C3NC(C)=O)cc(-c3cc(OCC(=O)NCCCOC4OC(CO)C(OC5OC(CO)C(O)C(OC6OC(CO)C(O)C(O)C6O)C5O)C(O)C4NC(C)=O)cc(C(=O)NCCNC(=O)CCOCCOCCOCCOCCOCCOCCOCCOCCOCCOCCOCCOCCNC(=O)CCCCC4SCC5NC(=O)NC54)c3)c2)OC(CO)C(OC2OC(CO)C(O)C(OC3OC(CO)C(O)C(O)C3O)C2O)C1O` (stereo not drawn) [Example 16] to `CC(=O)NC1C(O)[C@H](O[C@@H]2OC(CO)[C@H](O)C(O[C@H]3OC(CO)[C@H](O)C(O)C3O)C2O)C(CO)O[C@H]1OCCCNC(=O)CCCNC(=O)COc1cc(OCC(=O)NCCCC(=O)NCCCO[C@@H]2OC(CO)[C@@H](O[C@@H]3OC(CO)[C@H](O)C(O[C@H]4OC(CO)[C@H](O)C(O)C4O)C3O)C(O)C2NC(C)=O)cc(-c2cc(OCC(=O)NCCCC(=O)NCCCO[C@@H]3OC(CO)[C@@H](O[C@@H]4OC(CO)[C@H](O)C(O[C@H]5OC(CO)[C@H](O)C(O)C5O)C4O)C(O)C3NC(C)=O)cc(C(=O)NCCNC(=O)CCCC[C@@H]3SC[C@@H]4NC(=O)N[C@@H]43)c2)c1` (stereo partly drawn) [Example 60], the EC50 rises from 8.4 nM to 24.1 nM (2.9-fold).

First: CC(=O)N[C@H]1[C@H](OCCCNC(=O)COc2cccc(-c3cc(OCC(=O)NCCCO[C@@H]4O[C@H](CO)[C@@H](O[C@@H]5O[C@H](CO)[C@H](O)[C@H](O[C@H]6O[C@H](CO)[C@H](O)[C@H](O)[C@H]6O)[C@H]5O)[C@H](O)[C@H]4NC(C)=O)cc(C(=O)NCCNC(=O)CCCC[C@@H]4SC[C@@H]5NC(=O)N[C@@H]54)c3)c2)O[C@H](CO)[C@@H](O[C@@H]2O[C@H](CO)[C@H](O)[C@H](O[C@H]3O[C@H](CO)[C@H](O)[C@H](O)[C@H]3O)[C@H]2O)[C@@H]1O [Example 14]
Second: CC(=O)N[C@H]1[C@H](OCCCNC(=O)COc2cc(-c3cccc(C(=O)NCCNC(=O)CCCC[C@@H]4SC[C@@H]5NC(=O)N[C@@H]54)c3)cc(OCC(=O)NCCCO[C@@H]3O[C@H](CO)[C@@H](O[C@@H]4O[C@H](CO)[C@H](O)[C@H](O[C@H]5O[C@H](CO)[C@H](O)[C@H](O)[C@H]5O)[C@H]4O)[C@H](O)[C@H]3NC(C)=O)c2OCC(=O)NCCCO[C@@H]2O[C@H](CO)[C@@H](O[C@@H]3O[C@H](CO)[C@H](O)[C@H](O[C@H]4O[C@H](CO)[C@H](O)[C@H](O)[C@H]4O)[C@H]3O)[C@H](O)[C@H]2NC(C)=O)O[C@H](CO)[C@@H](O[C@@H]2O[C@H](CO)[C@H](O)[C@H](O[C@H]3O[C@H](CO)[C@H](O)[C@H](O)[C@H]3O)[C@H]2O)[C@@H]1O [Example 55]
The EC50 of the first is 2.3-fold lower: 11.9 nM for the first, 27.4 nM for the second.

Going from `CC(=O)NC1C(OCCCNC(=O)CCOCCOCCOCCOCCOCCOCCOCCOCCOCCOCCOCCOCCNC(=O)COc2cc(OCC(=O)NCCOCCOCCOCCOCCOCCOCCOCCOCCOCCOCCOCCOCCC(=O)NCCCOC3OC(CO)C(OC4OC(CO)C(O)C(OC5OC(CO)C(O)C(O)C5O)C4O)C(O)C3NC(C)=O)cc(-c3cc(OCC(=O)NCCOCCOCCOCCOCCOCCOCCOCCOCCOCCOCCOCCOCCC(=O)NCCCOC4OC(CO)C(OC5OC(CO)C(O)C(OC6OC(CO)C(O)C(O)C6O)C5O)C(O)C4NC(C)=O)cc(C(=O)NCCNC(=O)CCCCC4SCC5NC(=O)NC54)c3)c2)OC(CO)C(OC2OC(CO)C(O)C(OC3OC(CO)C(O)C(O)C3O)C2O)C1O` (stereo not drawn) [Example 56] to `CC(=O)N[C@H]1[C@H](OCCCNC(=O)COc2cc(OCC(=O)NCCCO[C@@H]3O[C@H](CO)[C@@H](O[C@@H]4O[C@H](CO)[C@H](O)[C@H](O[C@H]5O[C@H](CO)[C@H](O)[C@H](O)[C@H]5O)[C@H]4O)[C@H](O)[C@H]3NC(C)=O)cc(-c3cc(C(=O)NCCNC(=O)CCCC[C@@H]4SC[C@@H]5NC(=O)N[C@@H]54)c(OCC(=O)NCCCO[C@@H]4O[C@H](CO)[C@@H](O[C@@H]5O[C@H](CO)[C@H](O)[C@H](O[C@H]6O[C@H](CO)[C@H](O)[C@H](O)[C@H]6O)[C@H]5O)[C@H](O)[C@H]4NC(C)=O)cc3OCC(=O)NCCCO[C@@H]3O[C@H](CO)[C@@H](O[C@@H]4O[C@H](CO)[C@H](O)[C@H](O[C@H]5O[C@H](CO)[C@H](O)[C@H](O)[C@H]5O)[C@H]4O)[C@H](O)[C@H]3NC(C)=O)c2)O[C@H](CO)[C@@H](O[C@@H]2O[C@H](CO)[C@H](O)[C@H](O[C@H]3O[C@H](CO)[C@H](O)[C@H](O)[C@H]3O)[C@H]2O)[C@@H]1O` [Example 9], the EC50 falls from 16.3 nM to 10.1 nM (1.6-fold). The second is the more potent here.
